According to patent US9328085B2, “Heterocyclic compounds and expansion agents for hematopoietic stem cells” (NISSAN CHEMICAL INDUSTRIES, LTD., priority 2009, dated 2016):

Tests used:
CD34^+ cells = experiment: Expansion of CD34+ cells using human cord blood-derived CD34+ cells (Assay Example 1); type: cell-based; settings: 100 ng/mL SCF, 7 days, based on the number of CD34^+ cells in the absence of compound
Procedure: (§1) Human cord blood-derived CD34^+ cells were purchased from Lonza and plated on a 24-well plate (Corning) (10000 cells/1 mL/well). As the culture medium, StemSpan SFEM (StemCell Technologies) containing 100 ng/mL SCF (Wako Pure Chemical Industries) was used, and one of Compounds No. 1 to 72 dissolved in dimethyl sulfoxide was added in an amount of 0.1% (v/v) to a final concentration of 1 or 3 μg/mL. As a positive control, TPO (PeproTech) was used at a final concentration of 10 ng/mL.
(§2) After the cells were incubated in liquid culture at 37° C. for 7 days in a CO2 incubator (5% CO2), the number of viable cells was counted by trypan blue assay. The number of CD34^+CD38^− cells was calculated as follows. After the incubation, the cells in the liquid culture was stained with a CD34 antibody (APC, Becton, Dickinson and Company) and a CD38 antibody (PE, Becton, Dickinson and Company), then washed with PBS(−) containing 2% (v/v) FBS and stained with propidium iodide (Sigma-Aldrich Japan) added to a final concentration of 5 μg/mL. The stained cells were analyzed with a BD FACSCANTO™ II flow cytometer (Becton, Dickinson and Company) to determined the proportions of CD34^+ cells and CD34^+CD38^− cells, which was multiplied by the number of viable cells to calculate the numbers of CD34^+ cells and CD34^+CD38^− cells.
(§3) The expansion efficiencies in the presence of 1 or 3 μg/mL of compounds based on the number of CD34^+ cells in the absence of them are shown in Tables 3-1 and 3-2 on a scale of A for expansion efficiencies of 6 or greater, B for expansion efficiencies of at least 4 and less than 6, and C for expansion efficiencies of at least 2 and less than 4. The expansion efficiencies in the presence of 1 or 3 μg/mL of compounds based on the number of CD34^+CD38^− cells in the absence of them are shown in Tables 4-1 and 4-2 on a scale of A for expansion efficiencies of 10 or greater, B for expansion efficiencies of at least 5 and less than 10, and C for expansion efficiencies of at least 3 and less than 5. Further, in Table 3, the compounds with an expansion efficiency twice or more greater than that of TPO are marked with O.

CD34^+CD38^− cells = experiment: Expansion of CD34+CD38- cells using human cord blood-derived CD34+ cells (Assay Example 1); type: cell-based; settings: for Comparison with TPO: 3 μg/mL compound vs TPO 10 ng/mL, CD34^+CD38^− cells; for Expansion efficiency (CD34^+CD38^− cells): 100 ng/mL SCF, 7 days, based on the number of CD34^+CD38^− cells in the absence of compound
Procedure: as §1, §2, §3

SMILES	Expansion efficiency (CD34^+ cells) (CD34^+ cells; 3 μg/mL compound)	Comparison with TPO (CD34^+CD38^− cells)	Expansion efficiency (CD34^+CD38^− cells) (CD34^+CD38^− cells; 3 μg/mL compound)	Expansion efficiency (CD34^+ cells) (CD34^+ cells; 1 μg/mL compound)	Expansion efficiency (CD34^+CD38^− cells) (CD34^+CD38^− cells; 1 μg/mL compound)
CC(=NNC(=O)c1ccc(C(=O)NCc2ccc(C(=O)NCCN3CCOCC3)cc2)s1)c1csc(-c2ccc(Br)cc2)c1O [compound 21]	A (A for expansion efficiencies of 6 or greater)	∘	A (A for expansion efficiencies of 10 or greater)	–	–
CC(=NNC(=O)c1ccc(C(=O)NCc2ccc(S(=O)(=O)NCCOCCO)cc2)s1)c1csc(-c2ccc(C(C)(C)C)cc2)c1O [compound 2]	B (B for expansion efficiencies of at least 4 and less than 6)	–	A (A for expansion efficiencies of 10 or greater)	–	–
CCCCOCCOCCNC(=O)c1ccc(CNC(=O)c2ccc(C(=O)NN=C(C)c3csc(-c4ccc(Br)cc4)c3O)s2)cc1 [compound 36]	C (C for expansion efficiencies of at least 2 and less than 4)	–	B (B for expansion efficiencies of at least 5 and less than 10)	–	–
CC(=NNC(=O)c1ccc(C(=O)NCc2ccc(C(=O)NCCN3CCNCC3)cc2)s1)c1csc(-c2ccc(Br)cc2)c1O [compound 30]	A (A for expansion efficiencies of 6 or greater)	∘	A (A for expansion efficiencies of 10 or greater)	–	–
CC(=NNC(=O)c1ccc(C(=O)NCc2ccc(C(=O)NCC3CCCO3)cc2)s1)c1csc(-c2ccc(Cl)c(Cl)c2)c1O (stereo not shown) [compound 10]	B (B for expansion efficiencies of at least 4 and less than 6)	–	A (A for expansion efficiencies of 10 or greater)	–	–
CC(=NNC(=O)c1ccc(C(=O)NCc2ccc(C(=O)NCc3ccco3)cc2)s1)c1csc(-c2ccc(Br)cc2)c1O [compound 9]	C (C for expansion efficiencies of at least 2 and less than 4)	–	B (B for expansion efficiencies of at least 5 and less than 10)	–	–
CC(=NNC(=O)c1ccc(C(=O)NCc2ccc(C(=O)NCCO)cc2)s1)c1csc(-c2ccc(Cl)c(Cl)c2)c1O [compound 13]	A (A for expansion efficiencies of 6 or greater)	∘	A (A for expansion efficiencies of 10 or greater)	–	–
CCCCCCOCCOCCNC(=O)c1ccc(CNC(=O)c2ccc(C(=O)NN=C(C)c3csc(-c4ccc(C(C)(C)C)cc4)c3O)s2)cc1 [compound 38]	C (C for expansion efficiencies of at least 2 and less than 4)	–	A (A for expansion efficiencies of 10 or greater)	–	–
CC(=NNC(=O)c1ccc(C(=O)NCc2ccc(CC(N)=O)cc2)s1)c1csc(-c2ccc(C(F)(F)F)cc2)c1O [compound 69]	A (A for expansion efficiencies of 6 or greater)	–	A (A for expansion efficiencies of 10 or greater)	–	–
CC(=NNC(=O)c1ccc(C(=O)NCc2ccc(C(=O)NCc3ccccn3)cc2)s1)c1csc(-c2ccc(Cl)c(Cl)c2)c1O [compound 4]	C (C for expansion efficiencies of at least 2 and less than 4)	–	B (B for expansion efficiencies of at least 5 and less than 10)	–	–
CCCCOCCOCCNC(=O)c1ccc(CNC(=O)c2ccc(C(=O)NN=C(C)c3csc(-c4ccc(C(C)(C)C)cc4)c3O)s2)cc1 [compound 35]	C (C for expansion efficiencies of at least 2 and less than 4)	–	B (B for expansion efficiencies of at least 5 and less than 10)	–	–
COc1ccc(-c2scc(C(C)=NNC(=O)c3ccc(C(=O)NCc4ccc(C(=O)NCCOCCO)cc4)s3)c2O)cc1 [compound 65]	C (C for expansion efficiencies of at least 2 and less than 4)	–	B (B for expansion efficiencies of at least 5 and less than 10)	–	–
CC(=NNC(=O)c1ccc(C(=O)NCc2ccc(C(=O)NCCO)cc2)s1)c1csc(-c2ccc(C(C)(C)C)cc2)c1O [compound 14]	–	–	–	A (A for expansion efficiencies of 6 or greater)	A (A for expansion efficiencies of 10 or greater)
CC(=NNC(=O)c1ccc(C(=O)NCc2ccc(S(=O)(=O)NCCOCCO)cc2)s1)c1csc(-c2ccc(Br)cc2)c1O [compound 3]	C (C for expansion efficiencies of at least 2 and less than 4)	–	A (A for expansion efficiencies of 10 or greater)	–	–
C/C(=N\NC(=O)c1ccc(C(=O)NCc2ccc(S(=O)(=O)NCCOCCO)cc2)s1)c1csc(-c2ccc(Cl)c(Cl)c2)c1O [compound 1]	C (C for expansion efficiencies of at least 2 and less than 4)	–	A (A for expansion efficiencies of 10 or greater)	–	–
CC(=O)NCc1ccc(CNC(=O)c2ccc(C(=O)NN=C(C)c3csc(-c4ccc(Br)cc4)c3O)s2)cc1 [compound 54]	–	–	–	A (A for expansion efficiencies of 6 or greater)	A (A for expansion efficiencies of 10 or greater)
CCCCCCOCCOCCNC(=O)c1ccc(CNC(=O)c2ccc(C(=O)NN=C(C)c3csc(-c4ccc(Cl)c(Cl)c4)c3O)s2)cc1 [compound 37]	C (C for expansion efficiencies of at least 2 and less than 4)	–	A (A for expansion efficiencies of 10 or greater)	–	–
CC(=NNC(=O)c1ccc(C(=O)NCc2ccc(CC(N)=O)cc2)s1)c1csc(-c2ccc(Cl)cc2)c1O [compound 70]	A (A for expansion efficiencies of 6 or greater)	∘	A (A for expansion efficiencies of 10 or greater)	–	–
CC(=NNC(=O)c1ccc(C(=O)NCc2ccc(C(=O)NCC3CCCO3)cc2)s1)c1csc(-c2ccc(C(C)(C)C)cc2)c1O (stereo not shown) [compound 11]	A (A for expansion efficiencies of 6 or greater)	–	A (A for expansion efficiencies of 10 or greater)	–	–
CC(=O)NCc1ccc(CNC(=O)c2ccc(C(=O)NN=C(C)c3csc(-c4ccc(OC(F)(F)F)cc4)c3O)s2)cc1 [compound 57]	B (B for expansion efficiencies of at least 4 and less than 6)	–	A (A for expansion efficiencies of 10 or greater)	–	–
COc1ccc(-c2scc(C(C)=NNC(=O)c3ccc(C(=O)NCc4ccc(CC(N)=O)cc4)s3)c2O)cc1 [compound 72]	B (B for expansion efficiencies of at least 4 and less than 6)	–	B (B for expansion efficiencies of at least 5 and less than 10)	–	–
CC(=NNC(=O)c1ccc(C(=O)NCc2ccc(C(=O)NCCN(CCO)CCO)cc2)s1)c1csc(-c2ccc(Cl)c(Cl)c2)c1O [compound 22]	A (A for expansion efficiencies of 6 or greater)	∘	A (A for expansion efficiencies of 10 or greater)	–	–
CC(=NNC(=O)c1ccc(C(=O)NCc2ccc(C(=O)NCCOCCO)cc2)cc1)c1csc(-c2ccc(C(C)(C)C)cc2)c1O [compound 44]	C (C for expansion efficiencies of at least 2 and less than 4)	–	A (A for expansion efficiencies of 10 or greater)	–	–
CC(=NNC(=O)c1ccc(C(=O)NCc2ccc(C(=O)NCc3ccccn3)cc2)s1)c1csc(-c2ccc(C(C)(C)C)cc2)c1O [compound 5]	B (B for expansion efficiencies of at least 4 and less than 6)	–	A (A for expansion efficiencies of 10 or greater)	–	–
COCCOCCNC(=O)c1ccc(CNC(=O)c2ccc(C(=O)NN=C(C)c3csc(-c4ccc(C(C)(C)C)cc4)c3O)s2)cc1 [compound 32]	A (A for expansion efficiencies of 6 or greater)	∘	A (A for expansion efficiencies of 10 or greater)	–	–
CC(=NNC(=O)c1ccc(C(=O)NCc2ccc(C(=O)NCc3ccco3)cc2)s1)c1csc(-c2ccc(Cl)c(Cl)c2)c1O [compound 7]	C (C for expansion efficiencies of at least 2 and less than 4)	–	B (B for expansion efficiencies of at least 5 and less than 10)	–	–
